Test [1] deals with Homeodomain-interacting protein kinase 1 (Homo sapiens, UniProt Q86Z02). The experiment in a line: Selectivity interaction (Kinase panel (Z-LYTE Assay)) EUB0001632a HIPK1. The note with it: at 10 µM.
Test [2] concerns the target Protein kinase C theta type (Homo sapiens, UniProt Q04759). The experiment in a line: Selectivity interaction (KinomeScan (DiscoverX)) EUB0000666a PRKCQ. The note with it: at 10 µM.
In test [3] the target is T1, Mitogen-activated protein kinase kinase kinase 3 (Homo sapiens) (UniProt Q99759).
T1 sequence (whole entry): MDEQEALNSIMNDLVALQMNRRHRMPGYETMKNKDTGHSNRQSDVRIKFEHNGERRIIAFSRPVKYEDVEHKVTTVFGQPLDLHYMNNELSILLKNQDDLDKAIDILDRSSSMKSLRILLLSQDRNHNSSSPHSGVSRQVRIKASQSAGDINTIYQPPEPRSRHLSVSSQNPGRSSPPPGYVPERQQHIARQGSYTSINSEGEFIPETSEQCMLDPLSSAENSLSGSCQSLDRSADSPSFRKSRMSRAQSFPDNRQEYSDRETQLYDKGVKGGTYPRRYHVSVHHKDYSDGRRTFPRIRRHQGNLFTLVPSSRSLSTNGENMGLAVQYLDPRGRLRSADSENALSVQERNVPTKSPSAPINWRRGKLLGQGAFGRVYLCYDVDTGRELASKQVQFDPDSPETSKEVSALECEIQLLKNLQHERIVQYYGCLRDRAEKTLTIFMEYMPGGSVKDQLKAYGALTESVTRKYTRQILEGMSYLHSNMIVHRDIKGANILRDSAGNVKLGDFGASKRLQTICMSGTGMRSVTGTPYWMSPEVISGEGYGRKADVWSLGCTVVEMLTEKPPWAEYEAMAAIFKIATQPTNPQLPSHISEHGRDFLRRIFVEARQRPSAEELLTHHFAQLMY
The experiment in a line: Selectivity interaction (ActivX KiNativ screen (kinase selectivity in THP-1 cell lysates)) EUB0000639a MAP3K3. The class given is subcellular. The conditions noted are these: lysate, at 1 µM.

In test [4] the target is Dual specificity mitogen-activated protein kinase kinase 2 (Homo sapiens) (UniProt P36507). The experiment in a line: Selectivity interaction (ActivX KiNativ screen (kinase selectivity in THP-1 cell lysates)) EUB0000639a MAP2K2. The conditions noted are these: lysate, at 0.01 µM. The class given is subcellular.
Dual specificity mitogen-activated protein kinase kinase 2 (Homo sapiens), sequence (P36507 whole entry): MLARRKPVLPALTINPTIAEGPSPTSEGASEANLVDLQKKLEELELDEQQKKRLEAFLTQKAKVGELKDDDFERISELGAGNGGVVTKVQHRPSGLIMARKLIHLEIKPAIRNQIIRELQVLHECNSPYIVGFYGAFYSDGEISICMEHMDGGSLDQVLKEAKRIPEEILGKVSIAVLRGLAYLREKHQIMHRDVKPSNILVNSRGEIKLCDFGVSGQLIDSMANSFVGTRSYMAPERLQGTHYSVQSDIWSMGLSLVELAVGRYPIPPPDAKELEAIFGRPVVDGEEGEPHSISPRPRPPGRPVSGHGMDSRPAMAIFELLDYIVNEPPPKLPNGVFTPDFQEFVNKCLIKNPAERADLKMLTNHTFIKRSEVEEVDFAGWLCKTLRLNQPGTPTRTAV
Test [5] addresses T2, Serine/threonine-protein kinase D2 (Homo sapiens) (UniProt Q9BZL6).
T2 sequence (whole entry): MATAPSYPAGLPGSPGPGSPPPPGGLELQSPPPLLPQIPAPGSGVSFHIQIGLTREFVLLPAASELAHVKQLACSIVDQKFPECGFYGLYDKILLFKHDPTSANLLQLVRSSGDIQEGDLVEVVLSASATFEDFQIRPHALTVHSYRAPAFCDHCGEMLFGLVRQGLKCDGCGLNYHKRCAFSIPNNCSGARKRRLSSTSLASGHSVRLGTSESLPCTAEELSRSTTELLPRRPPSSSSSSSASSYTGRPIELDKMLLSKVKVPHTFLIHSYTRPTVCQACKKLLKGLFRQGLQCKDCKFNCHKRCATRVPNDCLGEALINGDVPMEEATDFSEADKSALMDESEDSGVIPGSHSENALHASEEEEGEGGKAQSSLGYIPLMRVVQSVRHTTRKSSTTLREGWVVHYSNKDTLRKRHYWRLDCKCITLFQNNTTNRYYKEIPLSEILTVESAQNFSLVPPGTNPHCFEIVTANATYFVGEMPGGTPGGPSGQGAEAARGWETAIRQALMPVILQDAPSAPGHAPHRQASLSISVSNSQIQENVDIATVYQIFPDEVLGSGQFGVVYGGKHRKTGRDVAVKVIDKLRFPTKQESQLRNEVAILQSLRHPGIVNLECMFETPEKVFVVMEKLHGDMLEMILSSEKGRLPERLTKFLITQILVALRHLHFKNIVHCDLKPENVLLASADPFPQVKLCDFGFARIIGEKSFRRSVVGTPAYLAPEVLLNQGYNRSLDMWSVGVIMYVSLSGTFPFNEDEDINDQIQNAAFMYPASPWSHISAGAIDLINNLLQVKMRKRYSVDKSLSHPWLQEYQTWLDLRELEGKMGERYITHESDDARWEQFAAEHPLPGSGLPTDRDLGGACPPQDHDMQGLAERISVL
The note with it: at 10 µM.

For test [6], the target named is T3, Serine/threonine-protein kinase 17B (Homo sapiens) (UniProt O94768).
T3 sequence (whole entry): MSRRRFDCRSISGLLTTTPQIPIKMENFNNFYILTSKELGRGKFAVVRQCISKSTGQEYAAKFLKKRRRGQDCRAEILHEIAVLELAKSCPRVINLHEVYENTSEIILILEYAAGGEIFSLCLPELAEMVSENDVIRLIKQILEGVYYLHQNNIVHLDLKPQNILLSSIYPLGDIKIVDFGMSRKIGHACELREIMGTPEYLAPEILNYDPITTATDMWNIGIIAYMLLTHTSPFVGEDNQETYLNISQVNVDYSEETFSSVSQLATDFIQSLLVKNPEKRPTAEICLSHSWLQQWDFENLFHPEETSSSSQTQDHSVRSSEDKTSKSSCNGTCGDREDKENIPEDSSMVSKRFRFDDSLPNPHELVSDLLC
The experiment in a line: Selectivity interaction (KinomeScan (DiscoverX)) EUB0001049a STK17B. The conditions noted are these: at 1 µM.

Test [7] has as its target T4, Dual specificity mitogen-activated protein kinase kinase 4 (Homo sapiens) (UniProt P45985).
T4 sequence (whole entry): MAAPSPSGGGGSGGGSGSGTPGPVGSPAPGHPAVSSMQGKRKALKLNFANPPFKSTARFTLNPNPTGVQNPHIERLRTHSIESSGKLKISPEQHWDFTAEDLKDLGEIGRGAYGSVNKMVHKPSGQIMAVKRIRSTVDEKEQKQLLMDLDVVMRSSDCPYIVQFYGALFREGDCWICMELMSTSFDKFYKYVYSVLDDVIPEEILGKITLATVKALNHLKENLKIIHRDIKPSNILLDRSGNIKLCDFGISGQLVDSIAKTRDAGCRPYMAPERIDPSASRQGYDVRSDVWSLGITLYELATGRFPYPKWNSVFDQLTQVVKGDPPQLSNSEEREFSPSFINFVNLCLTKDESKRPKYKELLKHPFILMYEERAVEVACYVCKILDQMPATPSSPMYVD
The experiment in a line: Selectivity interaction (KinomeScan (DiscoverX)) EUB0000695a MAP2K4. The note with it: at 100 nM.

The target of test [8] is Receptor tyrosine-protein kinase erbB-4 (Homo sapiens, UniProt Q15303). The experiment in a line: Selectivity interaction (ProQinase) EUB0000171b ERBB4.
Receptor tyrosine-protein kinase erbB-4, sequence (Q15303 whole entry): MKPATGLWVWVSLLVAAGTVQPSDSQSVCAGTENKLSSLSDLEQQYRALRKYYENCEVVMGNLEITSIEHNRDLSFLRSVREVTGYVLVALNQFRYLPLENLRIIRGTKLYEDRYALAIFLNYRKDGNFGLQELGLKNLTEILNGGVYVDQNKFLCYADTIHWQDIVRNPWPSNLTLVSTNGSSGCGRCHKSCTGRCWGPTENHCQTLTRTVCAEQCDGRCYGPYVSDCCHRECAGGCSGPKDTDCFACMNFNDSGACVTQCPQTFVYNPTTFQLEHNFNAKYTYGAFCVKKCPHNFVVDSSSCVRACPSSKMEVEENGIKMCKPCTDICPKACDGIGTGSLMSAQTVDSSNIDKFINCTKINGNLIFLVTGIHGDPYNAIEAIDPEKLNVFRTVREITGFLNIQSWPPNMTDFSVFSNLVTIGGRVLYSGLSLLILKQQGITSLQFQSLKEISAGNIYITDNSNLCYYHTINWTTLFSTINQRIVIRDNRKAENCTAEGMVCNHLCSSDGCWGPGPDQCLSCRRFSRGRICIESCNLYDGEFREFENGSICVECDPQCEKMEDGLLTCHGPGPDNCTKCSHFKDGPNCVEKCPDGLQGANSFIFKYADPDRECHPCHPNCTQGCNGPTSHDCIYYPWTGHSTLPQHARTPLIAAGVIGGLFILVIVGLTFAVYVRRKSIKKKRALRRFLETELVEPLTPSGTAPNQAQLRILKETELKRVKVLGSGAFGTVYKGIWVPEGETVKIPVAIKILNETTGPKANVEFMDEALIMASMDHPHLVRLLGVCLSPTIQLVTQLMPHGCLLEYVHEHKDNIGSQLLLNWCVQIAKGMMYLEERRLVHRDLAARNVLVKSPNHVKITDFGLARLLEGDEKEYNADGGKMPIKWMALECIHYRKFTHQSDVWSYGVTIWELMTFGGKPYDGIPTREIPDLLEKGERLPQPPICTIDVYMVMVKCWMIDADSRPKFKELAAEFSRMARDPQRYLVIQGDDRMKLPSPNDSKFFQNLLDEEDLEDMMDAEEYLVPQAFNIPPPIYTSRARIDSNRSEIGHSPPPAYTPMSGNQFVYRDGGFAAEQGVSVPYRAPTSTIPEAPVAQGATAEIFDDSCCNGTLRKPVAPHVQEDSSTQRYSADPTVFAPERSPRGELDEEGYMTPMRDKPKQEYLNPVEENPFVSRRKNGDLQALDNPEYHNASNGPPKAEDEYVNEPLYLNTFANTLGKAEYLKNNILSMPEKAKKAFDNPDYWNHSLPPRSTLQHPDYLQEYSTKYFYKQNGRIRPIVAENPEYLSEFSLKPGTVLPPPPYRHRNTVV

Homeodomain-interacting protein kinase 1, sequence (Q86Z02 whole entry, looked up): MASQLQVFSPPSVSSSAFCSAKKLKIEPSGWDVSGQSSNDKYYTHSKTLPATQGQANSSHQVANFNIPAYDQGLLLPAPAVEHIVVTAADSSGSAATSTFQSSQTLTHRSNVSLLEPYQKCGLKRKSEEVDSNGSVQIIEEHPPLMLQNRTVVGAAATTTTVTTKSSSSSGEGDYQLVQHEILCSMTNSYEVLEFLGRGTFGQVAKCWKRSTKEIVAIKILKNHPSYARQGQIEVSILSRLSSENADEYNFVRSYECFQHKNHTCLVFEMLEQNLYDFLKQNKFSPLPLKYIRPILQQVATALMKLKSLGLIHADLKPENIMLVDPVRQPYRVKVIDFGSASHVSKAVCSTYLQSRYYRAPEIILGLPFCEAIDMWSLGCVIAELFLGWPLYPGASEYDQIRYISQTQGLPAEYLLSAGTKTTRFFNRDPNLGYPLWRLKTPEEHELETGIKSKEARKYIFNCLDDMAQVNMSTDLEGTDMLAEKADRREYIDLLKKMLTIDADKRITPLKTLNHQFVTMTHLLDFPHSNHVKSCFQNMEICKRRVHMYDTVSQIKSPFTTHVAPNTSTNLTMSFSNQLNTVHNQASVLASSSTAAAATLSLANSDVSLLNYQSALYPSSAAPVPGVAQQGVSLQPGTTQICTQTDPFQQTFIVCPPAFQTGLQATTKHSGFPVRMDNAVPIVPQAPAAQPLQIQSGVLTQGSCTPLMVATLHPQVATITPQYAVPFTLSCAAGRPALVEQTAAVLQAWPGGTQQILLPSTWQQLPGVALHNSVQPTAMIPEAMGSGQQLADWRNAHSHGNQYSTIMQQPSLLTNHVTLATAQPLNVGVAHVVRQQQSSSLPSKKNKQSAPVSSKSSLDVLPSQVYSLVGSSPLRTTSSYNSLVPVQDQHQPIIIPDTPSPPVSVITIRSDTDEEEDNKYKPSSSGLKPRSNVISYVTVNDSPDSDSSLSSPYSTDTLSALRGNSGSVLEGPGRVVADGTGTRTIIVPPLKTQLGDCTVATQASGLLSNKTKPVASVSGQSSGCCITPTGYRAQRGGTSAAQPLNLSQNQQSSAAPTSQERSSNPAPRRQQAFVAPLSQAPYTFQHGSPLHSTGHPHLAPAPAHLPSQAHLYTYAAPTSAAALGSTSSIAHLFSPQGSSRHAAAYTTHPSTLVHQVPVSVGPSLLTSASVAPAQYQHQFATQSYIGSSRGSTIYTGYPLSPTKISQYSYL
Protein kinase C theta type, sequence (Q04759 whole entry, looked up): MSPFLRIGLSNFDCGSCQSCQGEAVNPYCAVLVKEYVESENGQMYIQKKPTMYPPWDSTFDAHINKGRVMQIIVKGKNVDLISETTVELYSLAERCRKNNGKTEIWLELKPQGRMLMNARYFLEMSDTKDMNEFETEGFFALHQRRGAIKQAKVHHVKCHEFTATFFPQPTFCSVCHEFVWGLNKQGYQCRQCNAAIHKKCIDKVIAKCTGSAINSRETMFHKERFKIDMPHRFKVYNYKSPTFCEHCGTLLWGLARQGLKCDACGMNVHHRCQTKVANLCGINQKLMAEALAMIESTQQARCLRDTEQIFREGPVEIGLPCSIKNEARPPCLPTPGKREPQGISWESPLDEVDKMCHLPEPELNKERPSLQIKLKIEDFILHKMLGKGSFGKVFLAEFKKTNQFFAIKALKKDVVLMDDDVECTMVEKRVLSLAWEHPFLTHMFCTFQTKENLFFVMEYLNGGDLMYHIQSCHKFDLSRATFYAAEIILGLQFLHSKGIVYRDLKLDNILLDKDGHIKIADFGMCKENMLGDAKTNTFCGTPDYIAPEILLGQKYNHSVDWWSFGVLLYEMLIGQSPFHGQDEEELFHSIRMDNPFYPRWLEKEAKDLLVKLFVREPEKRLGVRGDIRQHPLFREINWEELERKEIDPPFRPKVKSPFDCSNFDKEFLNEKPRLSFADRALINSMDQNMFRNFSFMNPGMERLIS

With `Cn1cc(-n2cnc3c(NCc4nc5cc(Cl)c(Cl)cc5[nH]4)nc(N4CCOCC4)nc32)cn1`, the % of control in test [1] is -0.292%.
Regarding `O=C(NOC[C@H](O)CO)c1ccc(F)c(F)c1Nc1ccc(I)cc1F`, the % of control in test [2] was found to be 100%.
On to `CC[C@@H]1[C@H](F)C(=O)N[C@@H]1COc1nccc2cc(C(N)=O)c(OC)cc12` [ZIMLOVISERTIB], for which the % of inhibition is -7.9% in test [3] and -2% in test [4].
For `CCN(CC)CCCCNc1ncc2cc(-c3cc(OC)cc(OC)c3)c(NC(=O)NC(C)(C)C)nc2n1`, the % of control in test [5] was 100%.
In the case of `COc1cc(Nc2nc(C)cc(-c3cnn4nc(OC)ccc34)n2)cc(C(F)(F)F)c1`, the % of control in test [6] was 81%.
`Cc1cc(F)c(C(=O)Nc2cccc(-c3nncn3C(C)C)n2)cc1-n1cnc(C2CC2)c1`: the % of control in test [7] was 100%.
With `C=CC(=O)Nc1cccc(C(=O)Nc2ccc(Nc3cc(-c4[nH]c(SC)nc4C)ccn3)cc2)c1`, the % of control in test [8] (at 1 µM) was found to be 93%; in test [8] (at 5 µM), 90%.

Source of the values: ChEMBL document CHEMBL5465560, “Selectivity Literature for EUbOPEN Chemogenomic Library” (2024).
